# Experimental data from patent US20240376091A1, “THIADIAZOLEAMIDE DERIVATIVES AND THEIR APPLICATIONS” (ZHEJIANG UNIVERSITY, priority 2021, published 2024).
# Biological target: T1, AR (Homo sapiens, UniProt P10275, T878A)
# T1 construct: into the androgen-dependent PCa cells (LNCaP); endogenous in cells; host or cells: LNCaP-ARR2PB-eGFP
# T1 sequence (P10275 1-920 T878A): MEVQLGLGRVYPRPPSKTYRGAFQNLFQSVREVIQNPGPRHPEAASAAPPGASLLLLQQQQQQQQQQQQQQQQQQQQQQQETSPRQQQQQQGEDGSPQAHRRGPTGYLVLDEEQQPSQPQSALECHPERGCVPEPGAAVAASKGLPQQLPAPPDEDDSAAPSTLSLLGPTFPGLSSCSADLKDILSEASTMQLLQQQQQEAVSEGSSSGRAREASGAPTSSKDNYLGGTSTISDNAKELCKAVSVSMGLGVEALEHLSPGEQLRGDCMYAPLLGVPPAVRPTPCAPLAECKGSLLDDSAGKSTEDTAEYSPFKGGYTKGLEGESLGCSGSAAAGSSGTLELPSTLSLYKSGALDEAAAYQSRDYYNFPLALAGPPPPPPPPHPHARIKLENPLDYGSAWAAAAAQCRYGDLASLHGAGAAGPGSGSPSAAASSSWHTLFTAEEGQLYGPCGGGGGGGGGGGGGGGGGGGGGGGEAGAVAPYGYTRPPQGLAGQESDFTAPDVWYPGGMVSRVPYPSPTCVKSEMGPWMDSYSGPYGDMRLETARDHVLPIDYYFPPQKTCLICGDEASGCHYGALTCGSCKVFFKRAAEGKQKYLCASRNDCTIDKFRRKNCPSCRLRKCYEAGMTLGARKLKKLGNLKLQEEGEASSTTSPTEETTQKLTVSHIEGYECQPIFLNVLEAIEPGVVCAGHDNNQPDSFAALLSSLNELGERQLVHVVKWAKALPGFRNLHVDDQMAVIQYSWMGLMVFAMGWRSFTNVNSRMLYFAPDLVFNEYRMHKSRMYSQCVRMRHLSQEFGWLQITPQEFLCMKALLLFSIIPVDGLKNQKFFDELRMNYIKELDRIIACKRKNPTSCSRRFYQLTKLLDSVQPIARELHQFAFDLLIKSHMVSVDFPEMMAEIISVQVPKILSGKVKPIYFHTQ
# Assay: AR transcriptional activity, LNCaP-ARR2PB-eGFP reporter cells
# Type: cell-based
# Conditions: read-out: IC50 AR transcriptional activities
# Source text: Detection principles: We conducted a stable transfection of promoter ARR2PB known for its strong AR responsiveness, into the androgen-dependent PCa cells (LNCaP). The expression of enhanced green fluorescent protein (eGFP) is depending on the degree of activation of AR. Therefore, LNCaP-ARR2PB-eGFP cell line could quantitatively determine the AR antagonistic activities of the compounds by evaluating the expression of eGFP.
row,SMILES,IC50 [µM]
1,"Cc1oc(-c2cccc(C(F)(F)F)c2)cc1C(=O)Nc1nc(CN2CCOCC2)ns1 [Compound A-110, 2-Methyl-N-(3-(morpholinomethyl)-1,2,4-thiadiazol-5-yl)-5-(3-(trifluoromethyl)phenyl) furan-3-carboxamide]",0.25
2,"Cc1oc(-c2cccc(C(F)(F)F)c2)cc1C(=O)Nc1nc(CC(C)O)ns1 (stereo not drawn) [Compound A-60, N-(3-(2-hydroxypropyl)-1,2,4-thiadiazol-5-yl)-2-methyl-5-(3-(trifluoromethyl)phenyl)furan-3-carboxamide]",0.39
3,"Cc1oc(C(=O)Nc2nc(CN3CCCCC3)ns2)cc1-c1cccc(C#N)c1 [Compound F-25, 4-(3-Cyanophenyl)-5-methyl-N-(3-(piperidin-1-ylmethyl)-1,2,4-thiadiazol-5-yl)furan-2-carboxamide]",15.5
4,"COc1cccc(-c2coc(C(=O)Nc3nc(CN4CCOCC4)ns3)c2)c1 [Compound G-26, 4-(3-Methoxyphenyl)-N-(3-(morpholinomethyl)-1,2,4-thiadiazol-5-yl)furan-2-carboxamide]",27.1
5,"CC(=O)Cc1nsc(NC(=O)c2cc(-c3ccccc3)oc2C)n1 [Compound A-5, 2-Methyl-N-(3-(2-oxopropyl)-1,2,4-thiadiazol-5-yl)-5-phenylfuran-3-carboxamide]",0.95
6,"CC(Cc1nsc(NC(=O)c2cc(-c3cccc(C#N)c3)co2)n1)N1CCCCC1 (stereo not drawn) [Compound G-7, 4-(3-Cyanophenyl)-N-(3-(2-(piperidin-1-yl)propyl)-1,2,4-thiadiazol-5-yl)furan-2-carboxamide]",23.2
7,"Cc1oc(-c2cccc(C(F)(F)F)c2)cc1C(=O)Nc1nc(CC(C)N(C)C)ns1 (stereo not drawn) [Compound A-38, N-(3-(2-(dimethylamino)propyl)-1,2,4-thiadiazol-5-yl)-2-methyl-5-(3-(trifluoromethyl)phenyl)furan-3-carboxamide]",0.09
8,"Cc1oc(-c2cccc(OC(F)(F)F)c2)cc1C(=O)Nc1nc(CC(C)N(C)C)ns1 (stereo not drawn) [Compound A-44, N-(3-(2-(dimethylamino)propyl)-1,2,4-thiadiazol-5-yl)-2-methyl-5-(3-(trifluoromethoxy)phenyl)furan-3-carboxamide]",0.06
9,"COc1cccc(-c2cc(C(=O)Nc3nc(CC(C)N4CCCCC4)ns3)c(C(F)(F)F)o2)c1 (stereo not drawn) [Compound E-9, 5-(3-Methoxyphenyl)-N-(3-(2-(piperidin-1-yl)propyl)-1,2,4-thiadiazol-5-yl)-2-(trifluoro-methyl)furan-3-carboxamide]",5.29
10,"CC(=O)Cc1nsc(NC(=O)c2cc(-c3cccc(C(F)(F)F)c3)sc2C)n1 [Compound C-1, 2-Methyl-N-(3-(2-oxopropyl)-1,2,4-thiadiazol-5-yl)-5-(3-(trifluoromethyl)phenyl)thiophene-3-carboxamide]",9.33
11,"O=C(Nc1nc(CN2CCCCC2)ns1)c1cc(-c2cccc(OC(F)F)c2)oc1C(F)(F)F [Compound E-41, 5-(3-(Difluoromethoxy)phenyl)-N-(3-(piperidin-1-ylmethyl)-1,2,4-thiadiazol-5-yl)-2-(trifluoromethyl)furan-3-carboxamide]",0.89
12,"CC(=O)Cc1nsc(NC(=O)c2cc(-c3cccc(C#N)c3)sc2C)n1 [Compound C-2, 5-(3-Cyanophenyl)-2-methyl-N-(3-(2-oxopropyl)-1,2,4-thiadiazol-5-yl)thiophene-3-carboxamide]",33.3
13,"CC(Cc1nsc(NC(=O)c2coc(-c3cccc(OC(F)F)c3)c2)n1)N1CCN(C)CC1 (stereo not drawn) [Compound B-19, 5-(3-(Difluoromethoxy)phenyl)-N-(3-(2-(4-methylpiperazin-1-yl)propyl)-1,2,4-thiadiazol-5-yl)furan-3-carboxamide]",59.3
14,"CN1CCN(Cc2nsc(NC(=O)c3cc(-c4cccc(C#N)c4)oc3C(F)(F)F)n2)CC1 [Compound E-38, 5-(3-Cyanophenyl)-N-(3-((4-methylpiperazin-1-yl)methyl)-1,2,4-thiadiazol-5-yl)-2-(trifluoromethyl)furan-3-carboxamide]",1.45
15,"Cc1oc(-c2cccc(C(F)(F)F)c2)cc1C(=O)Nc1nc(CC(C)(F)F)ns1 [Compound A-85, N-(3-(2,2-difluoropropyl)-1,2,4-thiadiazol-5-yl)-2-methyl-5-(3-(trifluoromethyl)phenyl) furan-3-carboxamide]",0.77
16,"Cc1oc(-c2cccc(OC(F)F)c2)cc1C(=O)Nc1nc(CN2CCOCC2)ns1 [Compound A-130, 5-(3-(Difluoromethoxy)phenyl)-2-methyl-N-(3-(morpholinomethyl)-1,2,4-thiadiazol-5-yl)furan-3-carboxamide]",0.67
17,"CCN(CC)C(C)Cc1nsc(NC(=O)c2cc(-c3cccc(OC(F)F)c3)oc2C)n1 (stereo not drawn) [Compound A-45, N-(3-(2-(diethylamino)propyl)-1,2,4-thiadiazol-5-yl)-5-(3-(difluoromethoxy)phenyl)-2-methylfuran-3-carboxamide]",0.04
18,"CC(=O)Cc1nsc(NC(=O)c2cc(-c3cccc(C(N)=O)c3)oc2C)n1 [Compound A-28, 5-(3-Carbamoylphenyl)-2-methyl-N-(3-(2-oxopropyl)-1,2,4-thiadiazol-5-yl)furan-3-carboxamide]",1.03
19,"COc1cccc(-c2coc(C(=O)Nc3nc(CC(C)N4CCOCC4)ns3)c2)c1 (stereo not drawn) [Compound G-8, 4-(3-Methoxyphenyl)-N-(3-(2-morpholinopropyl)-1,2,4-thiadiazol-5-yl)furan-2-carboxamide]",19.2
20,"COc1cccc(-c2cc(C(=O)Nc3nc(CN(C)C)ns3)c(C)o2)c1 [Compound A-118, N-(3-((dimethylamino)methyl)-1,2,4-thiadiazol-5-yl)-5-(3-methoxyphenyl)-2-methylfuran-3-carboxamide]",2.23
21,"CC(Cc1nsc(NC(=O)c2csc(-c3cccc(OC(F)F)c3)c2)n1)N1CCN(C)CC1 [Compound D-19, 5-(3-(Difluoromethoxy)phenyl)-N-(3-(2-(4-methylpiperazin-1-yl)propyl)-1,2,4-thiadiazol-5-yl)thiophene-3-carboxamide]",19.2
22,"CC(F)(F)Cc1nsc(NC(=O)c2coc(-c3cccc(C(F)(F)F)c3)c2)n1 [Compound B-35, N-(3-(2,2-difluoropropyl)-1,2,4-thiadiazol-5-yl)-5-(3-(trifluoromethyl)phenyl)furan-3-carboxamide]",14.5
23,"CC(Cc1nsc(NC(=O)c2csc(-c3cccc(C(F)(F)F)c3)c2)n1)=C(F)F [Compound D-30, N-(3-(3,3-difluoro-2-methylallyl)-1,2,4-thiadiazol-5-yl)-5-(3-(trifluoromethyl)phenyl)thiophene-3-carboxamide]",34.8
24,"CC(O)Cc1nsc(NC(=O)c2csc(-c3cccc(C(F)(F)F)c3)c2)n1 [Compound D-20, N-(3-(2-hydroxypropyl)-1,2,4-thiadiazol-5-yl)-5-(3-(trifluoromethyl)phenyl)thiophene-3-carboxamide]",18.1
25,"O=C(Nc1nc(CCl)ns1)c1cc(-c2cccc(C(F)(F)F)c2)oc1C(F)(F)F [Compound E-32, N-(3-(chloromethyl)-1,2,4-thiadiazol-5-yl)-2-(trifluoromethyl)-5-(3-(trifluoromethyl)phenyl)furan-3-carboxamide]",1.32
26,"CC(O)Cc1nsc(NC(=O)c2coc(-c3cccc(C(F)(F)F)c3)c2)n1 (stereo not drawn) [Compound B-20, N-(3-(2-hydroxypropyl)-1,2,4-thiadiazol-5-yl)-5-(3-(trifluoromethyl)phenyl)furan-3-carboxamide]",11.5
27,"COc1cccc(-c2cc(C(=O)Nc3nc(CC(C)=O)ns3)co2)c1 [Compound B-3, 5-(3-Methoxyphenyl)-N-(3-(2-oxopropyl)-1,2,4-thiadiazol-5-yl)furan-3-carboxamide]",12.6
28,"Cc1oc(-c2cccc(C#N)c2)cc1C(=O)Nc1nc(CC(C)N2CCN(C)CC2)ns1 (stereo not drawn) [Compound A-56, 5-(3-Cyanophenyl)-2-methyl-N-(3-(2-(4-methylpiperazin-1-yl)propyl)-1,2,4-thiadiazol-5-yl)furan-3-carboxamide]",0.84
29,"COc1cccc(-c2cc(C(=O)Nc3nc(CN4CCOCC4)ns3)c(C(F)(F)F)o2)c1 [Compound E-39, 5-(3-Methoxyphenyl)-N-(3-(morpholinomethyl)-1,2,4-thiadiazol-5-yl)-2-(trifluoromethyl)furan-3-carboxamide]",2.19
30,"Cc1oc(C(=O)Nc2nc(CN3CCN(C)CC3)ns2)cc1-c1cccc(OC(F)F)c1 [Compound F-28, 4-(3-(Difluoromethoxy)phenyl)-5-methyl-N-(3-((4-methylpiperazin-1-yl)methyl)-1,2,4-thiadiazol-5-yl)furan-2-carboxamide]",16.4
